Earlier results in US8003637B2, “Stabilized atypical antipsychotic formulation” (Handa Pharmaceuticals, LLC, priority 2008, dated 2011).
Where two headings read alike, the source gives them in different places.

Settings: Merck Index

Compound | volume of water in which 1 gram can dissolve (boiling water) [mL] | volume of water in which 1 gram can dissolve (cold water) [mL] | amount soluble in 100 grams of water (25° C.) [grams]
O=C(O)CCC(=O)O [succinic acid, 1,4-butanedioic acid] | 1 | 13 | –
O=C(O)/C=C/C(=O)O [fumaric acid, (E)-butenedioic acid] | – | – | 0.63
